Numbers after ± are expanded uncertainties.
Experiment: molar heat capacity at constant pressure
Details: 101.33 kPa, Liquid, Small sample (50 mg) DSC

molar heat capacity at constant pressure (298.2 K) [J/K/mol]	molar heat capacity at constant pressure (323.2 K) [J/K/mol]	Structure (SMILES)
524 ± 53	554 ± 56	CCCC[N+]1(C)CCCC1.N#C[B-](C#N)(C#N)C#N [1-butyl-1-methylpyrrolidinium tetracyanoborate]
495 ± 50	524 ± 53	CCCC[n+]1cccc(C)c1.N#C[B-](C#N)(C#N)C#N [1-butyl-3-methylpyridinium tetracyanoborate]

— the NIST ThermoML archive (doi:10.1016/j.jct.2011.05.022)
